Assay results taken from article PMC12495306 (RSC Medicinal Chemistry, 2025).

Experiments:
[1] = target: T1, ARα2A (Homo sapiens, UniProt P08913); experiment: GPCR Tango β-arrestin recruitment assay, ARα2A transfected HEK293; format: cell-based; conditions: for activation of ARα2A: agonist mode; for antagonism of ARα2A: in the presence of 300 nM norepinephrine
T1 sequence (P08913 1-465): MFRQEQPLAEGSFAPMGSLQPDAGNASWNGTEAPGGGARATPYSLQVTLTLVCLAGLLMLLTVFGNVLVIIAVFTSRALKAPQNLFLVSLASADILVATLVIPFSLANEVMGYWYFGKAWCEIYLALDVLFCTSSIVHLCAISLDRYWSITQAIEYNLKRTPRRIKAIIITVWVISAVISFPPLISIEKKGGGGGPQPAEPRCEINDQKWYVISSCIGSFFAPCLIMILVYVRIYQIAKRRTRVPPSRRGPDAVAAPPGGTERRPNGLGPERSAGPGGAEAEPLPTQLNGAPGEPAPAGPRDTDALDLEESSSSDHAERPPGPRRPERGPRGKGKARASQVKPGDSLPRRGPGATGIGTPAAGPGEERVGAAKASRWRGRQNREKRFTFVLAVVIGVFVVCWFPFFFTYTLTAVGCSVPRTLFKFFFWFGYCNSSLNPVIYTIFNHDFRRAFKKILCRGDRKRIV

[2] = target: T1, ARα2A; experiment: ARα2A radioligand; format: binding
[3] = tested on: HEK293 cells; experiment: Cell viability / cytotoxicity assay; format: cell-based, human; conditions: CellTiter-Glo, 18 h
[4] = Pharmacokinetic study, blood and brain; format: in vivo, mice; conditions: 40 mg kg−1 oral
[5] = target: T2, ARα2B (Homo sapiens, UniProt P18089); experiment: ARα2B radioligand; format: binding; conditions: for inhibition at 10 µM: read-out: ARα2B binding (% inhibition at 10 μM)
T2 sequence (P18089 1-450): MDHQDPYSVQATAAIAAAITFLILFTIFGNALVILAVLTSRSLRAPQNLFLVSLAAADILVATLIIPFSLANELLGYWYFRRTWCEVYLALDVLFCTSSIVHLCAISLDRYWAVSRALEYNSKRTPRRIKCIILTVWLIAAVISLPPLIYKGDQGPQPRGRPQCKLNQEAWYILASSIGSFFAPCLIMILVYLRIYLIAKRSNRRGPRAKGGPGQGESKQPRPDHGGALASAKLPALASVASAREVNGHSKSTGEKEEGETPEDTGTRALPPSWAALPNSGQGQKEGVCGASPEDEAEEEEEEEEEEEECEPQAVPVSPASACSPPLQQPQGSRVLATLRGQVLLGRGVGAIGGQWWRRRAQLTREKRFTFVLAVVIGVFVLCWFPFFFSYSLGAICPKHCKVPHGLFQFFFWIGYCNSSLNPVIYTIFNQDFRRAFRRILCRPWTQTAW

[6] = target: T2, ARα2B; format: cell-based; conditions: for activation of ARα2B: agonist mode; for antagonism of ARα2B: in the presence of 300 nM norepinephrine
[7] = target: T3, ARα2C (Homo sapiens, UniProt P18825); experiment: ARα2C radioligand; format: binding
T3 sequence (P18825 1-462): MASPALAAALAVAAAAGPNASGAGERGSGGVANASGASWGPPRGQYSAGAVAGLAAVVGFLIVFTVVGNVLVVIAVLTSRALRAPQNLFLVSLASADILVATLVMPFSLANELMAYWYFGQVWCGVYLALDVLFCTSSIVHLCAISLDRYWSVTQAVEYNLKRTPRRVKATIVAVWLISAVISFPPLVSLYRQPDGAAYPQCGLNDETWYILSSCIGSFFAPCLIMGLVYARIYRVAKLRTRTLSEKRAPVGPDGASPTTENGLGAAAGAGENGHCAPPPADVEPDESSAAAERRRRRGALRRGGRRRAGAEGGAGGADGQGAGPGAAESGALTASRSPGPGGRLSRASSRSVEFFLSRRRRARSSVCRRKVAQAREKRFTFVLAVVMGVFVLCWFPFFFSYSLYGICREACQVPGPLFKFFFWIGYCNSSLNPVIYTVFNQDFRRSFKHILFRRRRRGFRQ

[8] = tested on: Female Swiss Webster mice; experiment: Rotarod sensorimotor study; format: in vivo; conditions: 40 mg kg−1 oral; measured after 10, 30 and 60 minutes; n = 8
[9] = target: T3, ARα2C; experiment: GPCR Tango β-arrestin recruitment assay, ARα2C transfected HEK293; format: cell-based; conditions: for activation of ARα2C: agonist mode; for antagonism of ARα2C: in the presence of 300 nM norepinephrine
[10] = tested on: Female Swiss Webster mice; experiment: Open field test; format: in vivo; conditions: 40 mg kg−1 oral; 40 min after administration; n = 6
[11] = tested on: mice; conditions: cited from earlier work
[12] = tested on: mice; conditions: cited from earlier work; remark: listed apart in the source
[13] = ARα2A binding Ki, competition with 3H-Rauwolscinein, concentration response

| Compound | activation of ARα2A [1] | antagonism of ARα2A [1] | Ki [2, 13] [nM] | Cytotoxicity LD50 [3] [µM] | Ki [5] [nM] | inhibition at 10 µM [5] [%] | activation of ARα2B [6] | antagonism of ARα2B [6] | Ki [7] [nM] | sensorimotor inhibition on rotarod [8] | activation of ARα2C [9] | antagonism of ARα2C [9] | sedation (open field test) [10] | also measured |
| --- | --- | --- | --- | --- | --- | --- | --- | --- | --- | --- | --- | --- | --- | --- |
| CC1N=C(c2ccccc2F)c2cc(Nc3ccccc3)ccc2NC1=O (stereo not drawn) [Compound 2, 7-Anilino-5-(2-fluorophenyl)-3-methyl-1,3-dihydro-2H-1,4-benzodiazepin-2-one] | did not activate | antagonized | 3930 | 100 ± 19 | 511 | 90 | did not activate | antagonized | 1130 | did not observe any sensorimotor inhibition | did not activate | antagonized | no sedation | Ki ([2]; ARα2A Ki, rounded value): 3900 nM; oral availability ([4]; mice): orally available; blood : brain ratios ([4]; 10, 30, 60 min): increased over time; concentration in blood and brain ([4]; as early as 10 min, n = 4): appreciable concentration of 2 in blood and brain that exceeded the affinity of 2 for the target receptor; selectivity for α2B over the α2A subtype ([5]; from Ki values): 7.7 fold; selectivity for α2B over the α2C subtype ([5]; from Ki values): 2.2 fold |
| COc1ccccc1Nc1ccc2c(c1)C(c1ccccc1F)=NC(C)C(=O)N2 (stereo not drawn) [Compound 17, 5-(2-Fluorophenyl)-7-(2-methoxyanilino)-3-methyl-1,3-dihydro-2H-1,4-benzodiazepin-2-one] | did not activate | antagonized | 2050 | 148 ± 12 | 607 | 91 | did not activate | antagonized | 738 | did not observe any sensorimotor inhibition | did not activate | antagonized | no sedation | – |
| CCC1(c2cnc[nH]2)Cc2ccccc2C1 [atipamezole] | – | – | – | – | – | – | – | – | – | – | – | – | – | locomotion (OFT) ([11]; 1 mg kg−1): did not modulate locomotion |
| Cc1cccc([C@H](C)c2cnc[nH]2)c1C [dexmedetomidine] | – | – | – | – | – | – | – | – | – | – | – | – | – | ability of mice to stay on the rotating rod ([12]; i.p. doses of higher than 10 μg kg−1): reduced the ability of mice to stay on the rotating rod; activity scores (OFT) ([11]; 30 μg kg−1 (s.c.)): significantly reduced the activity scores |
| Cc1ccc(N(CC2=NCCN2)c2cccc(O)c2)cc1 [phentolamine] | – | – | – | – | – | – | – | – | – | – | – | – | – | ability of mice to complete a rotarod exercise ([12]; 4 mg kg−1 (i.p.)): do not usually alter the ability of mice to complete a rotarod exercise |
